Measured values reported in patent publication US4331670A (priority 1979, dated 1982).

What was measured:
Pyricularia orzae = assay: whole plant or invertebrate; format: in vivo, Pyricularia orzae (rice plant, Chukyo Asahi); details: in Oryza sativa, 120 h, read-out: Protective value
Plutella xylostella = assay: Test 11: mortality of larvae of Plutella xylostella on treated cabbage leaf; format: in vivo; details: foliar, 192 h, leaf dipped, emulsifiable concentrate Composition No. 3, eight days, read-out: Percent mortality
Excerpt: Each emulsifiable concentrate of each active ingredient as Composition No. 3 was dispersed in water at a concentration of 800 ppm. Each leaf of cabbage was dipped into each emulsion for about 10 seconds and taken up and dried in air.
A wet filter paper was put in each Petri dish (diameter of 9 cm), and each treated leaf was put on the filter paper. Larvae of Plutella xylostella at 2nd to 3rd instar were charged and the dish was covered with a cap and kept in a constant temperature chamber with lighting at 28° C. Eight days after the charge, mortality was measured and each percent mortality was calculated.

Rhizoctonia solani = assay: whole plant or invertebrate; format: in vivo, Rhizoctonia solani (rice plant, Chukyo Asahi); details: in Oryza sativa, 120 h, read-out: Preventive value
Botrytis cinerea = assay: Test 9: protective value on cucumber inoculated with Botrytis cinerea; format: in vivo, Botrytis cinerea (cucumber plant, Suyo); details: 72 h, 250 ppm, 10 ml sprayed, lesion length three days after inoculation
Procedure: In each unglazed pot having a diameter of 9 cm, cucumber plant (Suyo) was cultured. At one leaf stage, 10 ml. of each solution of each active ingredient having a concentration of 250 ppm was sprayed by a spray gun. After maintaining the pot in a green-house at 24° to 25° C. for one day, a disc (punched agar disc) obtained by culturing Botrytis cinerea on a potato-glucose-agar medium (PDA medium) was put on the leaf of cucumber to inoculate them. Three days after the inoculation, lengths of lesions were measured and each protective value was calculated as Test 2.
In accordance with the test, except the concentration of the active ingredient was decreased, the comparative tests of Compound No. 7 and Reference compound were carried out.

Row | SMILES | pest or weed control at 100 ppm (Pyricularia orzae) | mortality at 800 ppm (Plutella xylostella) | pest or weed control at 100 ppm (Rhizoctonia solani) | pest or weed control at 50 ppm (Pyricularia orzae) | pest or weed control at 250 ppm (Botrytis cinerea)
1 | CCSc1c(C(F)(F)F)cc([N+](=O)[O-])c(Nc2ncc(C(F)(F)F)cc2Cl)c1[N+](=O)[O-] [compound 46] | 95% |  |  |  | 
2 | COc1ccc(Nc2c([N+](=O)[O-])cc([N+](=O)[O-])cc2C(F)(F)F)nc1 [compound 74, N-(5-methoxy-2-pyridyl)-2,4-dinitro-6-trifluoromethylaniline] |  | 100% | 93% |  | 
3 | O=[N+]([O-])c1cc([N+](=O)[O-])c(Nc2nc(Cl)ccc2C(F)(F)F)c(C(F)(F)F)c1 [compound 76] |  |  | 100% | 100% | 
4 | Cc1nc(Nc2c([N+](=O)[O-])cc(C(F)(F)F)c(Cl)c2[N+](=O)[O-])c(Cl)c(C)c1Cl [compound 11] | 84% |  |  |  | 
5 | O=[N+]([O-])c1cc(C(F)(F)F)c(Cl)c([N+](=O)[O-])c1Nc1ncc(Cl)cc1Br [compound 18] | 100% |  | 100% |  | 100%
6 | Cc1cnc(Nc2c([N+](=O)[O-])cc([N+](=O)[O-])cc2C(F)(F)F)c(Br)c1 [compound 64] |  | 100% | 100% | 100% | 
7 | O=[N+]([O-])c1cc(C(F)(F)F)c(Cl)c([N+](=O)[O-])c1Nc1ncc(Br)cc1Br [compound 17] | 100% |  |  |  | 92%
8 | O=[N+]([O-])c1cc(C(F)(F)F)c(Cl)c([N+](=O)[O-])c1Nc1ccc(C(F)(F)F)cn1 [compound 19] | 100% |  | 100% |  | 100%
9 | CCc1nc(Nc2c([N+](=O)[O-])cc([N+](=O)[O-])cc2C(F)(F)F)ccc1I [compound 67] |  | 100% |  | 100% | 
10 | O=[N+]([O-])c1cc([N+](=O)[O-])c(Nc2c(Cl)cncc2Cl)c(C(F)(F)F)c1 [compound 79] |  |  | 90% |  | 
11 | O=[N+]([O-])c1cc([N+](=O)[O-])c(Nc2ncc(Cl)cc2C(F)(F)F)c(C(F)(F)F)c1 [compound 83] |  | 100% |  | 100% | 
12 | O=[N+]([O-])c1cc(C(F)(F)F)c(Cl)c([N+](=O)[O-])c1Nc1nc(Cl)c(C(F)(F)F)cc1Cl [compound 35] | 95% |  | 100% |  | 100%
13 | O=[N+]([O-])c1cc(C(F)(F)F)c(Cl)c([N+](=O)[O-])c1Nc1ccc(Cl)cn1 [compound 5] | 100% |  |  |  | 
14 | CC(C)Oc1c(C(F)(F)F)cc([N+](=O)[O-])c(Nc2ncc(C(F)(F)F)cc2Cl)c1[N+](=O)[O-] [compound 42] | 95% | 100% | 95% |  | 
15 | Cc1nc(Nc2c([N+](=O)[O-])cc([N+](=O)[O-])cc2C(F)(F)F)c(Cl)cc1Cl [compound 68] |  | 100% | 100% | 100% | 
16 | Cc1cc(Nc2c([N+](=O)[O-])cc([N+](=O)[O-])cc2C(F)(F)F)ncc1Br [compound 87] |  | 100% | 100% | 100% | 
17 | O=[N+]([O-])c1cc([N+](=O)[O-])c(Nc2ncc(Br)cc2C(F)(F)F)c(C(F)(F)F)c1 [compound 84] |  |  |  | 100% | 
18 | Cc1nc(Nc2c([N+](=O)[O-])cc(C(F)(F)F)cc2[N+](=O)[O-])c(Cl)c(C)c1Cl [compound 9] | 83% |  |  |  | 
19 | Cc1nc(Nc2c([N+](=O)[O-])cc([N+](=O)[O-])cc2C(F)(F)F)ccc1Cl [compound 69] |  |  |  | 100% | 
20 | COc1ccc(Nc2c([N+](=O)[O-])cc(C(F)(F)F)cc2[N+](=O)[O-])c(OC)n1 [Compound No. 25] | 85% |  |  |  | 
21 | Cc1cc(Cl)cc(Nc2c([N+](=O)[O-])cc([N+](=O)[O-])cc2C(F)(F)F)n1 [compound 73] |  |  | 87% |  | 
22 | Cc1ccnc(Nc2c([N+](=O)[O-])cc([N+](=O)[O-])cc2C(F)(F)F)c1 [compound 56] |  | 100% |  |  | 
23 | O=[N+]([O-])c1cc([N+](=O)[O-])c(Nc2cc(Cl)cc(Cl)n2)c(C(F)(F)F)c1 [compound 72] |  |  | 100% |  | 
24 | CCc1nc(Nc2c([N+](=O)[O-])cc(C(F)(F)F)c(Cl)c2[N+](=O)[O-])ccc1Br [compound 23] | 93% |  |  |  | 81%
